# Where two headings read alike, the source gives them in different places.
# Assays:
# [1] = test system: HLA-A2+ p53+ UMUC-14 cells; assay: In vitro 24-hour incubation of UMUC-14 cells with chemotherapeutic agents; assay type: cell-based, human; conditions: G0/G1 cell cycle arrest
# Method: The anti-tumor efficacy of multi-dose administration of […] (ALT-801), alone and in combination with gemcitabine and cisplatin, was evaluated on primary tumor growth in athymic nude mice bearing human bladder UMUC-14 and KU7P cells. Treatment with a gemcitabine and cisplatin regimen is the standard-of-care for patients with metastatic bladder cancer. To assess the in vitro effects of these chemotherapeutic agents on human bladder cancer cells, HLA-A2^+ p53^+ UMUC-14 cells were treated with gemcitabine and cisplatin, alone and in combination.
# [2] = test system: subcutaneous MB49G tumors; assay: Gemcitabine resistant subcutaneous MB49G tumor model; assay type: in vivo, mice; conditions: ALT-801 0.8 mg/kg (sub-optimal dose), gemcitabine 40 mg/kg
# Text: As potent suppressors of various immune cell functions, MDSCs are potential therapeutic targets for anticancer treatment. For example, gemcitabine, a widely-used chemotherapeutic, can selectively eliminate MDSCs in tumor-bearing animals and enhance tumor-suppressive immune activity (Suzuki et al., Clin Cancer Res, 11: 6713-6721, 2005).
# [3] = test system: UMUC-14 cells; assay: WST-1 cell proliferation assay, UMUC-14; assay type: cell-based, human; conditions: WST-1 reagent, 24 hours, read-out: IC50, inhibition of UMUC-14 cell growth
# Method: (§1) The sensitivity of the human bladder tumor cell lines to gemcitabine and cisplatin was further assessed using a cell proliferation assay. UMUC-14 and KU7P cells were plated in media containing various amounts of gemcitabine and cisplatin and cell proliferation was determined using the WST-1 reagent 24 hours later.
# [4] = test system: Gr1+CD11b+ MDSCs; assay: Spleen Gr1+CD11b+ MDSCs after gemcitabine; assay type: in vivo, C57BL/6 mice; conditions: 40 mg/kg i.v., three days after; untreated tumor-bearing 4.29 (±1.32), normal 1.19 (±0.25)
# Method: Gemcitabine is one of the drugs in the standard combination chemotherapy for muscle invasive bladder cancer. It has been reported that gemcitabine reduces myeloid-derived suppressor cells (MDSCs) in tumor-bearing mice. In this report, we studied the effect of gemcitabine on MDSCs induced by MB49luc cells in mice. MB49luc tumor-bearing mice were treated intravenously with gemcitabine at 40 mg/kg. Three days after gemcitabine treatment, splenocytes were isolated and the percentage of Gr1^+CD11b^+ MDSCs was determined by flow cytometry. The MDSCs accounted for 1.19 (±0.25) percent of the splenocytes in normal control mice without MB49luc tumors. These MDSCs increased to 4.29 (±1.32) percent of splenocytes in MB49luc tumor-bearing mice.
# [5] = test system: subcutaneous KU7P human bladder tumors; assay: Subcutaneous KU7P xenograft, monotherapy; assay type: in vivo, nude mice; conditions: Gem 40 mg/kg, MART-1scTCR/IL-2 2.19 mg/kg, ALT-801 1.6 mg/kg
# [6] = test system: KU7P cells; assay: WST-1 cell proliferation assay, KU7P; assay type: cell-based, human; conditions: WST-1 reagent, 24 hours, read-out: IC50, inhibition of KU7P cell growth
# Method: as §1
# [7] = test system: MB49luc cells; assay: Effect of IFN-γ on MB49luc cells, Annexin V flow cytometry; assay type: cell-based, mouse; conditions: 1 or 10 ng/mL
# Method: In the second part of this study, the effect of IFN-γ on MB49luc cell growth was investigated. MB49luc cells (2×10^5/well) were cultured in RPMI-10 with IFN-γ at 1 or 10 ng/mL. The IFN-γ-treated MB49luc cells were harvested and stained with FITC-labeled Annexin V. The Annexin V positive apoptotic MB49luc cells were determined by flow cytometry.
Compound,UMUC-14 cell proliferation [1],tumor growth / progression compared to PBS treated mice [2],"IC50 ([3]; Homo sapiens, UMUC14)",spleen Gr1+CD11b+ MDSCs as percent of splenocytes [4],growth of subcutaneous KU7P tumors compared to PBS treated mice [5],IC50 ([6]; Homo sapiens),IC50 [3],IC50 [6],cytotoxicity against MB49luc cells (Annexin V positive apoptotic cells) [7]
Nc1ccn([C@@H]2O[C@H](CO)[C@@H](O)C2(F)F)c(=O)n1 [gemcitabine],dose dependent decrease,did not significant differ,2030 µM,1.83 (±0.92) percent,statistically significant decrease,0.05 µM,–,–,–
N.N.[Cl][Pt][Cl] [cisplatin],dose dependent decrease,–,–,–,–,–,9.2 µM,1.4 µM,–
IFN-γ: cytokine added to MB49luc cell cultures,–,–,–,–,–,–,–,–,does not directly result in detectable cytotoxicity
